Assay: Human HepG2 cell viability assay in 384 well format
Type: toxicity, cell-based
Set-up: dose 125 nL, time 70.5 hour; cytotoxicity at 70.5 h: concentration not given beside the values
Details: HepG2 cells, read-out: Inhibition

| Structure (SMILES) | cytotoxicity at 70.5 h [%] |
| --- | --- |
| O=C(CCc1cccnc1)N1CCC(c2cnccn2)CC1 | -6.11 |
| O=C(O)C(c1ccc2c(c1)OCO2)N1CCCCCC1 (centres undefined) | -1.77 |
| Cc1cccc(OCCC(=O)NCC2CN(C)CCO2)c1C (centres undefined) | -5.5 |
| CCCN1CCc2[nH]cnc2C12CCN(C(=O)Cn1ccnc1C)CC2 | -6.5 |
| CCn1cnnc1CNC(=O)N(C)Cc1ccc2c(c1)OCCO2 | 6.83 |
| COCCNC(=O)[C@@H]1CCO[C@@H]2CCN(Cc3cnn(C)c3)C[C@@H]21 | -11.1 |
| CCOCCn1nc(C)cc1C(=O)N1CCCC[C@H](N(C)C)C1 | -4.33 |
| c1cc(-c2n[nH]c(CNc3nnc(C4CC4)o3)n2)ccn1 | 0.716 |
| CCCn1ccc(C(=O)N2CCOC(c3nc(-c4cccs4)no3)C2)n1 (centres undefined) | 4.34 |
| c1ccc(-c2nccc(CNC3CCc4ncnn4C3)n2)cc1 (centres undefined) | -4.99 |
| O=C1CCc2cc(S(=O)(=O)NC(=O)c3ccc4c(c3)OCO4)ccc2N1 | -15.2 |
| CCCc1n[nH]c(C2CN(CCn3cccn3)CCO2)n1 (centres undefined) | -6.79 |
| CN1CCOC(CNCc2nc(-c3ccco3)no2)C1 (centres undefined) | 2.27 |
| NC(=O)CCN(C(=O)CSc1ccc(F)cc1)c1ccc(F)cc1 | 30.2 |
| CCc1nc(Cn2ccnc2-c2nccn2C)no1 | -7.78 |
| CC(C)(NC(=O)c1coc(COc2cccc(F)c2)n1)C(N)=O | -8.32 |
| CN(CCc1ccncc1)C(=O)C1CSCN1C(=O)C(C)(C)C (centres undefined) | -8.71 |
| Cc1cccc2c1OCCC2NCc1c(C(C)C)nn(C)c1N(C)C (centres undefined) | -10.6 |
| COC1CCN(C(=O)CCc2c(C)nc3ccnn3c2C)CC1 | -0.665 |
| Cc1nc(C)n(C2CCCN(C(=O)CCc3cscn3)C2)n1 (centres undefined) | 37 |
| COCC(=O)N1CCC2(C1)c1ccccc1S(=O)(=O)N2CCC(C)C (centres undefined) | -5.31 |
| COc1ncc(C(=O)N2CCC3(CC2)C(=O)Nc2ccccc23)cn1 | 0.417 |
| O=c1[nH][nH]cc1-c1ccnc(NCCc2cccnc2)n1 | -2.07 |

| Structure (SMILES) | cytotoxicity at 70.5 h [%] |
| --- | --- |
| Cc1ccc(C(=O)N2CC[C@@H]3[C@H]2CCC(=O)N3c2ccccc2)o1 | -13.7 |
| COc1cc(NC(=O)N2CCCC2c2ccco2)cc(OC)c1 (centres undefined) | -8.23 |
| CC(O)CN1CCC(CNCc2ccc(OC(F)(F)F)cc2)CC1 (centres undefined) | 5.04 |
| Cn1cc(CN2CCOC3(CCCN(c4cccc(F)c4)C3)C2)cn1 (centres undefined) | -7.93 |
| O=C(CC1CCc2ccccc21)NCCSc1cnn[nH]1 (centres undefined) | -9.43 |
| O=C(CCc1ccccn1)NC1CCN(c2cccc(Cl)c2)C1 (centres undefined) | 39.6 |
| COC(=O)c1ccc(C2SCC(=O)Nc3ccsc32)cc1 (centres undefined) | -8.05 |
| COc1ccc(NC(C)=O)cc1OCc1cccnc1 | 29.5 |
| COC(=O)c1ccoc1COC(=O)CCc1ccc(OC)c(OC)c1 | -15.4 |
| COCCN1CCCC2(CCN(c3nccc4ccccc34)C2)C1=O (centres undefined) | 11.2 |
| CC(C)c1cc(C(=O)N2CCN(c3ncc4c(n3)CCOC4)CC2)on1 | 14.5 |
| Cc1nc(CN2CCCC(C)(CO)C2)no1 (centres undefined) | -4.42 |
| CCc1noc(CN(C)Cc2ccc(N3CCCCC3)cc2)n1 | -7.61 |
| Cc1cc(C(=O)NCc2ccnc(N3CCN(C)CC3)c2)sc1C | 20.5 |
| CN1CCN(C(=O)c2cc(C#N)cs2)c2ccccc2C1 | -0.662 |
| O=C(NCc1ccco1)[C@@]12CCO[C@@H]1CCN(Cc1nccs1)C2 | 1.38 |
| CN(Cc1ccc2c(c1)OCCO2)Cc1nc2c(cnn2C)c(=O)[nH]1 | -5.53 |
| CC(C)N(Cc1cccnc1)C(=O)CCSc1ccc(C#N)cc1 | 5.31 |
| O=C(CCc1cc2n(n1)CCN(Cc1ccncc1)C2)N1CCCC1 | 18.6 |
| CC(C)CCN(C(=O)c1cccc(NC(N)=O)c1)C1CC1 | -17.2 |
| Cn1c(CN2CCCCC2)nnc1C1CCCN(c2ccncc2F)C1 (centres undefined) | -5.33 |
| COc1ccc2nnc(CCCC(=O)NCCc3ccccn3)n2n1 | -3.59 |
| CNC(=O)CNC(=O)c1ccc(-c2scnc2C)nc1 | -0.926 |

| Structure (SMILES) | cytotoxicity at 70.5 h [%] |
| --- | --- |
| O=C(c1cnc[nH]1)N1CCC(Oc2cccnc2)CC1 | -8.28 |
| Cn1nc(C(=O)NCc2ccccc2C(F)(F)F)c2c1CCS(=O)(=O)C2 | -5.12 |
| Cc1nn(C)c(N2CCOCC2)c1CNC(C(N)=O)c1ccccc1 (centres undefined) | 4.26 |
| CC(C)NC(=O)N1CC[C@@H]2CN(S(C)(=O)=O)CCO[C@@H]2C1 | -4.96 |
| COc1ccccc1Oc1ncccc1CNC(=O)[C@@H](C)NC(C)=O | -0.828 |
| Cc1c(Cl)cc(C(=O)N(CCO)Cc2nccn2C)cc1Cl | -0.75 |
| CCn1cc(CN2CCCC(c3[nH]ncc3S(C)(=O)=O)C2)cn1 (centres undefined) | 1.9 |
| COc1cc(C2(C(=O)NCC(=O)NC3CC3)CC2)ccc1C | -5.44 |
| Cc1cc(C)n(CCNC(=O)c2cc(C3CC3)n[nH]2)n1 | -4.88 |
| O=C(Cc1ccc2c(c1)OCO2)N1CCCN(c2ccccc2)CC1 | -4.44 |
| COc1ccc(Cn2c(=O)n(C)c(=O)c3sccc32)cc1 | 3.39 |
| CC(C)c1nc(CN(C)C(=O)c2cn3ccsc3n2)cs1 | 2.2 |
| CCc1noc(C)c1C(=O)N1CCN(c2nc(C)cc(OC)n2)CC1 | 5.53 |
| COC(=O)CC1CCN(C(=O)c2ccccc2-n2nnnc2C)CC1 | -12.6 |
| Cc1ccc(C(=O)N2CCOCC3(CCN(C4CCOCC4)C3)C2)o1 (centres undefined) | -13.2 |
| C=C(C)CN1CCN(Cc2nccn2C)C(C)C1 (centres undefined) | 30.2 |
| Cc1oncc1C(=O)N1CC[C@H]2[C@@H]1CCC(=O)N2CC1CC1 | 2.95 |
| O=C(c1ccc(S(=O)(=O)NCc2ccon2)cc1)N1CCOCC1 | 19.9 |
| Cn1c(=O)ccn(CC(=O)Nc2cccnc2)c1=O | 12.6 |
| CCCOc1ccc2ccccc2c1CN1CC[C@@]2(O)CCNC[C@H]2C1 | -4.34 |
| Cn1c(CN2CCOCC2)nnc1C1CCCN(C(=O)CCC2CC2)C1 (centres undefined) | -6.43 |
| COC(=O)CNC(=O)c1c(-n2cnnn2)sc2c1CCCC2 | -14.5 |
| CN1CCC(N2CCN(C(C(=O)O)c3cccc4c3OCC4)CC2)CC1 (centres undefined) | 2.04 |

| Structure (SMILES) | cytotoxicity at 70.5 h [%] |
| --- | --- |
| Cc1cnn(CCNCc2nc(CNC(=O)c3ccccc3)no2)c1 | 22.6 |
| COc1ccc(CNC(=O)Nc2cccnc2OC)cc1O | 22.7 |
| Cn1cnnc1S(=O)(=O)C1CCN(S(=O)(=O)c2ccc(F)c(Cl)c2)CC1 | -5.73 |
| CS(=O)(=O)c1ccccc1-n1cc(NC(=O)CC2C=CCC2)cn1 (centres undefined) | -6.16 |
| CC(C)c1nn(C)c(N(C)C)c1CNCc1ccc(N(C)C)nc1 | 3.68 |
| CN1CCC(c2nnc3n2CCN(S(=O)(=O)c2ccccc2)C3)CC1 | -5.15 |
| O=C(CCOc1ccccc1)N1CCCC(n2cncn2)C1 (centres undefined) | 2.02 |
| O=C(c1nc(=O)[nH][nH]1)N1CCCC(c2cc(C(F)(F)F)[nH]n2)C1 (centres undefined) | 34.5 |
| Cc1ccccc1Oc1ncccc1CNS(C)(=O)=O | 19.1 |
| CC(C)n1ccnc1C1CCCN(c2ccccn2)C1 (centres undefined) | -11.1 |
| Cc1cc(-c2cnc(N(C)C)nc2C2CCCCN2C(=O)C2CC2)on1 (centres undefined) | -3.37 |
| CC(C)n1c(=O)c2ccccc2n(CCN(C)C)c1=O | -8.7 |
| COCc1nc2n(n1)CCCC2Nc1nc(C(C)C)ns1 (centres undefined) | -6.22 |
| CCOc1ccccc1C(=O)Nc1cccc(C[S+](C)[O-])c1C (centres undefined) | 15.1 |
| Cc1ccc(S(=O)(=O)N(C)CC(N)=O)c(Cl)c1 | -10.6 |
| CN(C)C(=O)CN1CCOCC2(CCN(CC3CCOCC3)CC2)C1 | -7.63 |
| CCc1nc2ccccc2c(=O)n1CC1(O)CCNCC1 | -11.1 |
| CCO[C@H]1COC[C@@H]1NC(=O)CCc1nc(-c2ccccc2)no1 | -8.01 |
| COc1cccc(CC2CN(C3CCC3)CCO2)c1 (centres undefined) | 0.0358 |
| O=C1NCC(C(=O)N(Cc2cccc(Br)c2)C2CC2)N1 (centres undefined) | 26.3 |
| Cc1ccc(N2N=C(C(=O)N(C)Cc3ccco3)NCC2=O)cc1 | 4.87 |
| Cc1nnc(NCc2cccc(OCC3CCCO3)c2)c(C#N)c1C (centres undefined) | 29 |
| Cc1nnc(N2CCO[C@H]3[C@@H](OCc4ccccn4)CC[C@@H]32)s1 | -2.28 |

| Structure (SMILES) | cytotoxicity at 70.5 h [%] |
| --- | --- |
| Cc1cc(C)n(C2CCCN(C(=O)Cc3cccc(F)c3)C2)n1 (centres undefined) | -9.48 |
| CC(C)n1nc(CN2CCCCC2)c2c1CN(C(=O)c1ccno1)C2 | -8.4 |
| Clc1ccc(CN2CCC3(CC2)CC(c2cccnc2)=NO3)cc1 | 3.85 |
| CCNC(=O)NC(=O)CNC1(c2noc(C)n2)CCCCC1 | 28.5 |
| Cn1ccnc1CN1CCCN(C(=O)CC(C2CC2)C2CC2)CC1 | 0.914 |
| CCc1cc(NCc2cc(CC(C)C)on2)n2nccc2n1 | -2.02 |
| COc1ccc(C(=O)O)cc1-c1cccc(C(C)N(C)C)c1 (centres undefined) | 0.229 |
| N#Cc1ccc(NCc2cccnc2N2CCC(C(N)=O)CC2)cn1 | -7.33 |
| CCc1nc2n(n1)CCCC2NC(=O)Nc1cccc(F)c1F (centres undefined) | 4.24 |
| Cc1ccsc1CNC1CCCN(Cc2noc(C3CC3)n2)C1 (centres undefined) | -2.45 |
| O=C(Cn1ccc2cc(Br)ccc21)NCc1ccc(C(=O)O)cc1 | -27.5 |
| Cc1cccnc1NCCNC(=O)c1cnc(-c2cccs2)nc1O | -0.575 |
| CCc1nsc(N2CCCN(C(=O)c3ccc(CC)o3)CC2)n1 | -11 |
| O=C(C1CCC1)N1CCC2(CC1)CNCCO2 | 4.67 |
| O=C(CN1CCOCS1(=O)=O)NCc1ccccc1 | 25.7 |
| Cc1csc(N2CCN(CCCN3CCCC3=O)CC2)n1 | -0.2 |
| CC(SCCNS(=O)(=O)c1cnn(C)c1)c1cccc(F)c1 (centres undefined) | -5.51 |
| Cc1nn(Cc2ccccc2)c(C)c1CNC1CCc2ncnn2C1 (centres undefined) | 0.852 |
| O=C(Cn1cc(C(=O)O)ccc1=O)NCc1ccc(F)cc1Cl | 5.89 |
| COC(=O)CCC(=O)N1CCc2[nH]nc(-c3ccc4c(c3)OCO4)c2C1 | -3.99 |
| CC(C)Cc1cc(NC(=O)c2ccccc2F)n(C)n1 | -9.5 |
| Cc1cc(C(=O)N2CCc3c(ncn3CCc3ccccc3)C2)on1 | -7.15 |

Reference: ChEMBL document CHEMBL3507680, “University of Dundee, Gates Library screen for HepG2 cell viability”
